# Test results taken from article PMC5656322, “BAK1 is involved in AtRALF1-induced inhibition of root cell expansion” (PLoS Genetics, 2017).
# Where two headings read alike, the source gives them in different places. Where no end group is shown, it is not given here.
# Legend:
# [1] = system: Arabidopsis seedlings, primary root; assay: Root growth inhibition assay, liquid medium, 24-well plates; format: in vivo, Arabidopsis thaliana; details: 10 μM, 2 days
# Method: (A) and (B) Arabidopsis seedlings (2 days old) were treated with 10 μM AtRALF1 or water (H20) for 2 days. The values are the mean ± SD of at least 25 seedlings. Triple asterisks indicate P < 0.01 (Student’s t test); ns, not significant. (C) Four-day-old seedlings were transferred to media containing different concentrations of AtRALF1, and the primary root length was measured after 8 days of treatment. The data represent the mean value ± SD of 30 seedlings. […] Representative Arabidopsis seedlings after 8 days of treatment with AtRALF1 are shown below. Seedlings were arranged on plates after the treatment for imaging. Scale bars, 1 cm. (D) Two-day-old seedlings were treated with 10 μM AtRALF1 or water for 2 days, and root cell length was measured after 2 days of treatment. Cells from the root endodermis in the differentiation zone were measured. The values are the mean ± SD of approximately 150 cells. Triple asterisks indicate P < 0.01 (Student’s t test); ns, not significant.
# Aliquots of 1 ml of medium containing seeds were distributed into 24-well plates. The peptides (10 μM) were added after 2 days, and the root length was measured 2 days after treatment. To maximize root growth, the seeds were germinated in vertical plates. […] The root length was measured 8 days after treatment unless stated otherwise. Control plants were grown under identical conditions in a peptide-free medium. Quantitative data were obtained as previously described. The experiments were repeated at least 3 times using independent biological replicates with similar results. The data from one representative experiment are shown. For cell length measurements, AtRALF1 peptide (10 μM) was added after 2 days of germination, and the cell length was measured after 2 days of treatment. The cell wall was stained with a 1 mg ml^-1 propidium iodide solution (Sigma) in the dark for 15 min and washed twice with water. Cells of the endodermis of the root differentiation zone were imaged and measured using confocal microscopy (Olympus FV1000). Approximately 30 plants from each genetic background and at least 5 cells per root were measured. The wavelengths for excitation and emission were 555 and 655 nm, respectively. Image processing was completed using the Olympus FluoView software.
# Arabidopsis seedlings (2-days-old) were treated with 10 μM AtRALF1 or water (H20) for 2 days. The values are the mean ± SD of at least 25 seedlings. Triple asterisks indicate P < 0.01 (Student’s t test); ns, not significant. (PDF) Click here for additional data file.
# Supplementary file pgen.1007053.s002.pdf: S2 Fig Loss-of-function bak1 mutants are sensitive to the inhibitory activity of AtRALF23/34 on root growth. Arabidopsis seedlings (2-day-old) were treated with 10 μM RALF1(9–49), RALF1(I6A), AtRALF1, AtRALF23 and AtRALF34 or water (H20) for 2 days. The values are the mean ± SD of at least 20 seedlings. […] (PDF) Click here for additional data file.
# [2] = system: cytosolic Ca^2+ in Arabidopsis seedlings; assay: Ca^2+ mobilization assay (apoaequorin luminescence); format: in vivo, Arabidopsis thaliana
# Method: The cytoplasmic Ca^2+ assay was performed in Arabidopsis seedlings as described previously. Changes in Ca^2+ levels were measured using an Arabidopsis line homozygous for the single insertion of a transgene encoding a cytoplasmically expressed apoaequorin protein driven by the constitutive promoter 35S [53], here denoted Wt-aeq. Wt-aeq plants were crossed with bak1-3 mutants, and T3 generation plants overexpressing apoaequorin and containing a T-DNA insertion in the BAK1 gene, named bak1-3-aeq, were selected and evaluated using semi-quantitative RT-PCR with specific primers (S1 Table). Arabidopsis seedlings were grown in plates for 4 days. A single seedling was transferred into each well of a 96-well white microplate (Thermo Labsystems) containing 200 μl of medium supplemented with […] coelenterazine cp (Biotium) and incubated in the dark at 24 °C for 16 h. Each well containing a single seedling received recombinant AtRALF1 or acridinium-labeled AtRALF1 at a final concentration of 5, 10 or 100 nM as indicated. The resulting luminescence emission was monitored using a microplate reader (Biotec ELx 800) and 20 time-points for approximately 160 s. The experiments were repeated at least three times using independent biological replicates. The data shown are from one representative experiment.
# [3] = system: Arabidopsis seedlings, primary root; details: ref [10], cited from earlier work
# Text: FERONIA (FER), a receptor-like kinase with an extracellular malectin-like domain, has been identified as the receptor of the root-specific isoform AtRALF1 [10]. LORELEI (LRE) and LRE-like GPI-AP1 (LLG1) are two glycosylphosphatidylinositol-anchored proteins found in ovules and vegetative tissues, respectively, that physically interact with FER and are required for FER delivery to the cell membrane and FER signaling. […] In a search for putative genetic components that might be shared by both the AtRALF1 and BR signaling pathways, we tested mutants lacking different components of the BR signaling pathway in root growth assays with inhibitory concentrations of the AtRALF1 peptide. […] A previous study in which 18 receptor-like proteins were tested in root g ...
Substance,root growth inhibition ([1]; bak1-1 and bak1-3 mutants),sensitivity to root growth inhibition ([1]; bak1-4 complemented with pBAK1:BAK1),"root growth inhibition ([1]; bri1-301, bsk3-2, sud1, bes1-D, bzr1-D, BRI OX, DWF4 OX lines)",sensitivity to root growth inhibition ([1]; loss-of-function bak1 mutants (bak1-4)),"root growth inhibition ([1]; serk1, serk2, serk4 (bak7), serk5 (bak8) mutants)","increase in cytoplasmic Ca^2+ ([2]; acriAtRALF1 vs unlabeled AtRALF1, apoaequorin seedlings (S17A Fig))","cytosolic calcium increase ([2]; bak1-3-aeq plants, 10 and 100 nM)","root growth inhibition, sensitivity of fer4 ([3]; FERONIA mutant fer4, low concentrations)","root growth inhibition ([3]; bak1-4 mutant, 1 μM)",activity of negative control peptides on root growth [1]
AtRALF1: root-specific RALF isoform in Arabidopsis; recombinant peptide hormone produced in E. coli (ATTKYISYQSLKRNSVPCSRRGASYYNCQNGAQANPYSRGCSKIARCRS; ends and bridges not checked; cysteine pairing not given here),exhibited no effect,recovered the sensitivity to the inhibitory effect of AtRALF1 treatment,exhibited root growth inhibition by AtRALF1,insensitive to the inhibitory activity of AtRALF1 on root growth,inhibited the root growth,induced an increase in cytoplasmic Ca^2+,cytosolic calcium increase similar to plants expressing the apoaequorin gene in a wild-type background,insensitive to low concentrations of the AtRALF1 peptide,the roots of the bak1-4 mutant were inhibited by the peptide,–
"RALF1(9–49): inactive AtRALF1 peptide which has a deletion of the first 8 amino acids (QSLKRNSVPCSRRGASYYNCQNGAQANPYSRGCSKIARCRS; ends and bridges not checked; cysteine pairing not given here; UniProt Q9SRY3 80-120, looked up, fragment)",–,–,–,–,–,–,–,–,–,inactive
